According to patent US9080173B2, “Methods and compositions for RNAi-based cancer treatment” (SILENSEED LTD., priority 2012, dated 2015):
d = 2'-deoxy (DNA); r = 2'-OH (RNA)

Assays:
Panc1-LUC tumors = test: Survival of SCIDbg mice with s.c. Panc1-LUC tumors; assay type: in vivo; conditions: 4 μg siG12D in 200 μl PBS i.p. weekly; over 41 days
Experimental: Mice were injected s.c. with 10×10^6 Panc1-LUC tumor cells in a total volume of 100 μl PBS, or into the tail of the pancreas with 10^6 cells in a total volume of 30 μl PBS.
In another experiment, 30 SCIDbg mice were injected s.c. with Panc1-LUC tumor cells, and were divided into 4 groups: (a) siG12D-DDD (12 μg siG12D per DDD)—2 DDD placed in each mouse; (b) empty DDD—2 DDD placed in each mouse; (c) 4 μg siG12D in 200 μl PBS injected intraperitoneally (i.p.) on a weekly basis; and (d) untreated. Tumor development was measured by caliper and Luciferase measurements. […] The difference in survival was statistically significant (p<0.05 compared to the other 3 groups).

Panc1 cells = test: Methylene Blue viability test of transfected Panc1 cells, alone and with Gemzar; assay type: cell-based; conditions: 72h post-transfection; 1 hr of treatment with 10 μM Gemzar
Experimental: FIG. 7. Gemzar® enhances siG12D-DDD effect. Panc1 cells were transfected using Lipofectamine™ with unmodified and modified siG12D and a scrambled (non-targeting) siRNA control molecule or were mock transfected (no siRNA). Cell viability was assessed 72 hrs post-transfection by the Methylene Blue (MB) test. Additional groups were transfected as described above, followed by 1 hr of treatment with 10 μM Gemzar®. The numbers 1-4 in the last column relate to the percent of inhibition of cellular growth, wherein the inhibition seen with the unmodified siRNA was assigned the value of 100%. 4, 3, 2, and 1 refer respectively to 75-100%, 50-75%, 25-50%, and 0-25% of the inhibition seen with the unmodified siRNA.
Experimental procedure: Panc1 cells were transfected using Lipofectamine™ with unmodified and modified siG12D and a scrambled (non-targeting) siRNA control molecule or were mock transfected (no siRNA). Cell viability was assessed 72 hrs post-transfection by the Methylene Blue (MB) test. Additional groups were transfected as described above, followed by 1 hr of treatment with 10 μM Gemzar®. At the exemplary time point of 72h, Gemzar® enhanced the effect of siG12D by nearly 10%. […] Other time points, for example 48h, 72h, 96h and 120h, may be utilized in additional studies.

sense GUUGGAGCUGAUGGCGUAGdTdT (SEQ ID No: 41), antisense CUACGCCAUCAGCUCCAACdTdT (SEQ ID No: 42) (sense GUUGGAGCUGAUGGCGUAGTT; antisense CUACGCCAUCAGCUCCAACTT; sugars from the 5' end r19 d2, backbone not given here) [siG12D, unmodified siRNA against G12D-mutated K-ras]
survival rate (Panc1-LUC tumors): 33.33%
enhancement of the effect of siG12D on cell viability by Gemzar (Panc1 cells): ~10%
